Legend:
[1] = target: human BACE1 (Homo sapiens, UniProt P56817); experiment: Fluorescent kinetic assay: Evaluation of BACE-1 Binding Affinity of Test Compounds; type: biochemical; conditions: 10 nM enzyme, 25 μM substrate WABC-6, 50 mM Na-Acetate pH 4.5, room temperature
Method in brief: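 Run with 10 nM human BACE1 and 25 μM WABC-6 FRET peptide in 50 mM Na-acetate pH 4.5, 0.05% CHAPS, 25% PBS at room temperature. Fluorescence (ex 320/em 420 nm) was read every 40 sec for 30 min, and initial cleavage rates were taken from linear slopes across ≥10 inhibitor concentrations.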

human BACE1, sequence (P56817 46-501): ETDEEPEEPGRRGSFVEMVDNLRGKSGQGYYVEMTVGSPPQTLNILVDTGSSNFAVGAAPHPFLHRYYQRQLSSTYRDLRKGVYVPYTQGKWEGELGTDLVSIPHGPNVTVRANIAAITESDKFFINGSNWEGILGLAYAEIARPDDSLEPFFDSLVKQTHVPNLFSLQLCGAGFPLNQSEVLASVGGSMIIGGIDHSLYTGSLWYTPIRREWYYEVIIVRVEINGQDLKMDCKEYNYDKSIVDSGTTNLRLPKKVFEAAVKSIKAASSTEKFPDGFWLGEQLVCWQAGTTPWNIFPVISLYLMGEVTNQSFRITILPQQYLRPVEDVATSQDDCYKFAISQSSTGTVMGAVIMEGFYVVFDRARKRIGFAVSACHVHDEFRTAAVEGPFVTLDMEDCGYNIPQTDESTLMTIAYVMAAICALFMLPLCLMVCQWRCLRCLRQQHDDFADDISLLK

Row | Compound | melting point | IC50 [1]
1 | COC(=O)c1cc(C2(c3ccc(F)c(-c4cncnc4)c3)N=C(N)N(C)C2=O)cn1CCF (stereo not drawn) [Example 118, Methyl 4-[2-Amino-4-(4-fluoro-3-pyrimidinyl-5-phenyl)-1-methyl-5-oxo-4,5-dihydro-1H-imidazol-4-yl]-1-(2-fluoroethyl)-1H-pyrrole-2-carboxylate] | 88 to 90 °C | 10 to 100 nM
2 | COC(=O)c1cc([C@]2(c3ccc(F)c(-c4cncnc4)c3)N=C(N)N(C)C2=O)cn1CCF [Example 119A, Methyl 4-[(4S)2-Amino-4-(4-fluoro-3-pyrimidinyl-5-phenyl)-1-methyl-5-oxo-4,5-dihydro-1H-imidazol-4-yl]-1-(2-fluoroethyl)-1H-pyrrole-2-carboxylate] | 186 to 188 °C | 10 to 100 nM
3 | COC(=O)c1cc([C@@]2(c3ccc(F)c(-c4cncnc4)c3)N=C(N)N(C)C2=O)cn1CCF [Example 119B, Methyl 4-[(4R)2-Amino-4-(4-fluoro-3-pyrimidinyl-5-phenyl)-1-methyl-5-oxo-4,5-dihydro-1H-imidazol-4-yl]-1-(2-fluoroethyl)-1H-pyrrole-2-carboxylate] | 186 to 188 °C | 110 to 1000 nM
4 | CCn1cc(C2(c3ccc(F)c(-c4cccnc4F)c3)N=C(N)N(C)C2=O)cc1C(=O)OC (stereo not drawn) [Example 123] | 113 to 115 °C | 10 to 100 nM
5 | CCOc1ccc(C2(c3cc(C(=O)NC)n(CC)c3)N=C(N)N(C)C2=O)cc1-c1cccnc1F (stereo not drawn) [Example 128] | 148 to 150 °C | > 1000 nM
6 | CCCC(=O)Nc1cccc(C2(c3cc(C(=O)CC)n(CC)c3)N=C(N)N(C)C2=O)c1 (stereo not drawn) [Example 129, N-{3-[2-amino-4-(1-ethyl-5-propionyl-1H-pyrrol-3-yl)-1-methyl-5-oxo-4,5-dihydro-1H-imidazol-4-yl]-phenyl}-butyramide] | 201 to 205 °C | 110 to 1000 nM
7 | CCC(=O)c1cc(C2(c3cccc(NC(=O)COC)c3)N=C(N)N(C)C2=O)cn1CC (stereo not drawn) [Example 131, N-{3-[2-amino-4-(1-ethyl-5-propionyl-1H-pyrrol-3-yl)-1-methyl-5-oxo-4,5-dihydro-1H-imidazol-4-yl]-phenyl}-2-methoxy-acetamide] | 95 to 115 °C | 10 to 100 nM

The remaining lines, values ahead:

Row | melting point | IC50 [1] | Compound
8 | 167 to 172 °C | 10 to 100 nM | CCC(=O)c1cc(C2(c3cccc(-c4cncnc4)c3)N=C(N)N(C)C2=O)cs1 (stereo not drawn) [Example 116, 2-Amino-3-methyl-5-(5-propionyl-thiophen-3-yl)-5-(3-pyrimidin-5-yl-phenyl)-3,5-dihydro-imidazol-4-one]
9 | 182 to 184 °C | 10 to 100 nM | COC(=O)c1cc(C2(c3ccc(F)c(-c4cncnc4)c3)N=C(N)N(C)C2=O)cn1CC(F)(F)F (stereo not drawn) [Example 121]
10 | 127 to 128 °C | 10 to 100 nM | COC(=O)c1cc(C2(c3ccc(F)c(-c4cccnc4F)c3)N=C(N)N(C)C2=O)cn1CCF (stereo not drawn) [Example 122]
11 | 117 to 118 °C | 110 to 1000 nM | CC(C)OC(=O)c1cc(C2(c3ccc(F)c(-c4cccnc4F)c3)N=C(N)N(C)C2=O)cn1CCF (stereo not drawn) [Example 124]
12 | 114 to 115 °C | 10 to 100 nM | CCOC(=O)c1cc(C2(c3ccc(F)c(-c4cccnc4F)c3)N=C(N)N(C)C2=O)cn1CC (stereo not drawn) [Example 125]
13 | 167 to 170 °C | 110 to 1000 nM | CC(C)OC(=O)c1cc(C2(c3ccc(F)c(-c4cncnc4)c3)N=C(N)N(C)C2=O)cn1CCF (stereo not drawn) [Example 127]
14 | 120 to 141 °C | 110 to 1000 nM | CCC(=O)Nc1cccc(C2(c3cc(C(=O)CC)n(CC)c3)N=C(N)N(C)C2=O)c1 (stereo not drawn) [Example 130, N-{3-[2-amino-4-(1-ethyl-5-propionyl-1H-pyrrol-3-yl)-1-methyl-5-oxo-4,5-dihydro-1H-imidazol-4-yl]-phenyl}-propionamide]
15 | 95 °C | 10 to 100 nM | CCCOc1cccc(C2(c3cc(C(=O)CC)n(CC)c3)N=C(N)N(C)C2=O)c1 (stereo not drawn) [Example 132, 2-Amino-5-(1-ethyl-5-propionyl-1H-pyrrol-3-yl)-3-methyl-5-(3-propoxyphenyl)-3,5-dihydro-4H-imidazol-4-one]

— patent publication US7705030B2, “Amino-5-(5-membered)hetero-arylimidazolone compounds and the use thereof for β-secretase modulation” (Wyeth LLC, priority 2005, dated 2010)
